Here are results for ten compounds from patent publication US11370798B2 (Vertex Pharmaceuticals Incorporated, priority 2012, dated 2022).

Molecules are shown by their SMILES.

The assay relates to HCT116 colorectal cancer cells. The assay can be described thus: Cisplatin sensitization assay (96 h cell viability MTS).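 Further: Test-compound concentration that lowers the Cisplatin IC50 by a set fold.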 The assay is classed as cell-based. Conditions: compound and Cisplatin added simultaneously, Cisplatin sensitization value. In outline:
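Viability read by MTS (1 h at 37° C) after 96 h co-exposure at 37° C, 5% CO2. Test compound and cisplatin were dosed simultaneously in a full concentration matrix, each 2-fold serially diluted from 10 μM final; sensitization values binned in μM.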

Take `CN1C2CCC1CN(C(=O)C1CCN(c3c(F)cncc3NC(=O)c3c(N)nn4cc(F)cnc34)CC1)C2` [I-G-52, 2-amino-6-fluoro-N-(5-fluoro-4-(4-(8-methyl-3,8-diazabicyclo[3.2.1]octane-3-carbonyl)piperidin-1-yl)pyridin-3-yl)pyrazolo[1,5-a]pyrimidine-3-carboxamide]: the “Cisplatin Sensitization Assay” value is listed as “+++ (Cisplatin sensitization value of <0.02 μM)”.
The entry for `CN1CC2CC1CN2C(=O)C1CCN(c2c(F)cncc2NC(=O)c2c(N)nn3cc(F)cnc23)CC1` (stereo not shown) [I-G-53, 2-amino-6-fluoro-N-(5-fluoro-4-(4-(5-methyl-2,5-diazabicyclo[2.2.1]heptane-2-carbonyl)piperidin-1-yl)pyridin-3-yl)pyrazolo[1,5-a]pyrimidine-3-carboxamide] is “+++ (Cisplatin sensitization value of <0.02 μM)”.
Then `CN1CCN(C(=O)C2(C)CCN(c3c(F)cncc3NC(=O)c3c(N)nn4cc(F)cnc34)CC2)CC1` [I-G-54, 2-amino-6-fluoro-N-(5-fluoro-4-(4-methyl-4-(4-methylpiperazine-1-carbonyl)piperidin-1-yl)pyridin-3-yl)pyrazolo[1,5-a]pyrimidine-3-carboxamide], with “+++ (Cisplatin sensitization value of <0.02 μM)”; and `Cc1cncc(NC(=O)c2c(N)nn3cc(F)cnc23)c1N1CCC(C(=O)N2CCN(C)CC2)CC1` [I-G-55, 2-amino-6-fluoro-N-(5-methyl-4-(4-(4-methylpiperazine-1-carbonyl)piperidin-1-yl)pyridin-3-yl)pyrazolo[1,5-a]pyrimidine-3-carboxamide], with “+++ (Cisplatin sensitization value of <0.02 μM)”.
The entry for `Cc1cncc(NC(=O)c2c(N)nn3cc(F)cnc23)c1N1CCC(C(=O)N2CCNCC2)CC1` [I-G-56, 2-amino-6-fluoro-N-(5-methyl-4-(4-(piperazine-1-carbonyl)piperidin-1-yl)pyridin-3-yl)pyrazolo[1,5-a]pyrimidine-3-carboxamide] is “+++ (Cisplatin sensitization value of <0.02 μM)”.
Turning to `Nc1nn2cc(F)cnc2c1C(=O)Nc1cncc(F)c1N1CCC(C(=O)N2CC(N3CCCCC3)C2)CC1` [I-G-57, 2-amino-6-fluoro-N-(5-fluoro-4-(4-(3-(piperidin-1-yl)azetidine-1-carbonyl)piperidin-1-yl)pyridin-3-yl)pyrazolo[1,5-a]pyrimidine-3-carboxamide], the “Cisplatin Sensitization Assay” value is reported as “+++ (Cisplatin sensitization value of <0.02 μM)”.
Then `Nc1nn2cc(F)cnc2c1C(=O)Nc1cncc(F)c1N1CCC(C(=O)N2CC[C@H](N3CCCC3)C2)CC1` [I-G-58, (S)—N-(4-(4-([1,3′-bipyrrolidine]-1′-carbonyl)piperidin-1-yl)-5-fluoropyridin-3-yl)-2-amino-6-fluoropyrazolo[1,5-a]pyrimidine-3-carboxamide], with “+++ (Cisplatin sensitization value of <0.02 μM)”; and `Nc1nn2cc(F)cnc2c1C(=O)Nc1cncc(F)c1N1CCC(C(=O)N2CCC(N3CCCC3)CC2)CC1` [I-G-59, 2-amino-6-fluoro-N-(5-fluoro-4-(4-(4-(pyrrolidin-1-yl)piperidine-1-carbonyl)piperidin-1-yl)pyridin-3-yl)pyrazolo[1,5-a]pyrimidine-3-carboxamide], with “+++ (Cisplatin sensitization value of <0.02 μM)”.
The entry for `Nc1nn2cc(F)cnc2c1C(=O)Nc1cncc(F)c1N1CCC(C(=O)N2CCC(N3CCCCC3)CC2)CC1` [I-G-60, N-(4-(4-([1,4′-bipiperidine]-1′-carbonyl)piperidin-1-yl)-5-fluoropyridin-3-yl)-2-amino-6-fluoropyrazolo[1,5-a]pyrimidine-3-carboxamide] is “+++ (Cisplatin sensitization value of <0.02 μM)”; for `C[C@H]1CN(C(=O)C2CCN(c3c(F)cncc3NC(=O)c3c(N)nn4cc(F)cnc34)CC2)CCN1` [I-G-61, (S)-2-amino-6-fluoro-N-(5-fluoro-4-(4-(3-methylpiperazine-1-carbonyl)piperidin-1-yl)pyridin-3-yl)pyrazolo[1,5-a]pyrimidine-3-carboxamide] it is “+++ (Cisplatin sensitization value of <0.02 μM)”.
